Results taken from patent US20240408066A1, “Treatment Of Conditions Associated With Stress Granule Formation” (priority 2022, published 2024).

Legend:
[1] = target: T1, recombinant mouse TIA1-ECFP+TIA1-EYFP (Mus musculus, UniProt P52912); experiment: In vitro FRET assay of TIA1 multimerization; assay type: binding; details: TIA1-ECFP+TIA1-EYFP 10 ug/ml each; test compound 0-40 μM; FIG. 4
T1 construct: Full-length mouse TIA1 cDNA was generated from standard RT-PCR from total mouse brain RNA; 6xHis (N); made in house; host or cells: E. coli BL21 AI
T1 sequence (P52912 1-386) 1: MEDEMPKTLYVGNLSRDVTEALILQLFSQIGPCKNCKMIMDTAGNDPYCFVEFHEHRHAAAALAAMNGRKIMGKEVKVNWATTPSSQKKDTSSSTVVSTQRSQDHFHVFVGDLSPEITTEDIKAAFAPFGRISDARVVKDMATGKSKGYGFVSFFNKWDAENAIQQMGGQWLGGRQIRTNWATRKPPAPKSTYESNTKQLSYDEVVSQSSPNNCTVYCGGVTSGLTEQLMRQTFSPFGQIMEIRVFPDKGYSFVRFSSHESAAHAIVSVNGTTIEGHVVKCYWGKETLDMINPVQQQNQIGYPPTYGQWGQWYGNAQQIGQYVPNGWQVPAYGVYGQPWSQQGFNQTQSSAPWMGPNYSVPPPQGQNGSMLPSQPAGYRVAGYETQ
T1 sequence (P52912 1-386) 2: T1 sequence (P52912 1-386) 1
Description: The assay that takes advantage of a phenomenon involving the transfer of energy between two compatible fluorescent proteins. In particular, the fluorescent proteins CFP and YFP (cyan fluorescent protein and yellow fluorescent protein, respectively) emit fluorescent light of characteristic wavelengths when excited by laser radiation. CFP or YFP was tethered to a TIA1 protein and the hybrid proteins were mixed together. Subsequently, if TIA1 self-interacts (dimerizes), the tethered CFP and YFP proteins are brought into close proximity to one another. When this occurs, laser excitation of CFP leads to a release of energy that is absorbed by YFP, which can be detected in the assay. This assay can be employed in the presence of other agents, such as small molecule compounds, to determine whether their presence has any effect on dimerization of TIA1. This screen was employed to assay compounds in a chemical library in order to identify compounds that effect TIA1 binding and dimerization or multimerization.
One way to establish that test compounds bind recombinant TIA1 is to perform a Förster resonance energy transfer (FRET) experiment. Binding of test compound to monomeric protein is inferred by a change in FRET signal upon ligand-induced multimerization of suitably tagged (c.g.,-ECFP and -EYFP) fusion proteins. In other words, not only must the compound bind to TIA1-ECFP and TIA1-EYFP, it must also induce a change in multimeric state such that energy can be transferred between the ECFP and EYFP tags. […]
Plasmids encoding mouse TIA1-ECFP and TIA1-EYFP were generated by standard PCR-based cloning techniques. […] Samples are read in real-time with a fluorescence microplate reader. To measure donor FRET, samples are excited at 430+30 nm, and […] is measured at 480+20 nm. Compounds that drive multimerization of the fusion proteins cause proximal localization of the ECFP and EYFP moieties, leading to a reduction in ECFP fluorescence with ECFP excitation due to energy transfer to EYFP. […]

[2] = test system: PS19 transgenic mice; experiment: Tau oligomerization in vivo in PS19 mice (hippocampal dot blots, oligomeric tau-specific antibody); set-up: species or system mouse; details: 10 mg/kg i.p. once per week for 6 weeks; FIG. 10
Protocol: FIG. 10 illustrates the inhibition of tau oligomerization in vivo by OTX1017. Mice were treated with 10 mg/kg OTX1017 i.p., once per week, for 6 weeks, hippocampal extracts were prepared, and dot blots were performed with an oligomeric tau-specific antibody.

[3] = test system: rTg4510 transgenic mice; experiment: Cellular pathology in rTg4510 mouse model (GFAP and NeuN immunohistochemistry); assay type: in vivo; details: 5 mg/kg i.p. once per week for 7 weeks beginning at 77 d; FIG. 7
Protocol: rTg4510 transgenic mice are a well-established model of tauopathy based on expression of a human tau mutant (P301L). […] Given that these cellular pathological events are driven by tau, TIA1 antagonists compounds should limit tau-dependent pathology.
rTg4510 transgenic mice were treated with DMSO vehicle or OTX1017 (Formula I in claims 5 mg/kg i.p.) once per week for 7 weeks beginning at 77 d. Hippocampal slices were then prepared for conventional immunohistochemistry with GFAP (neuroinflammation marker) and NeuN (neuronal marker), followed by quantitation using NIH ImageJ. GFAP signal was quantitated in cortex (ctx) (white arrows). NeuN staining was used to calculate average thickness of the CA1 pyramidal cell layer for each slice.

[4] = target: T2, recombinant mouse TIA1 with human recombinant tau (0N4R isoform) (Mus musculus, UniProt P52912); experiment: TIA1-induced oligomerization of tau protein in vitro (oTau immunoblotting); assay type: biochemical; details: fixed ratio of TIA1:tau; as a function of drug concentration and time (0.5-2 h); FIG. 5 right panels
T2 sequence (P52912 1-386): T1 sequence (P52912 1-386) 1
Protocol: Oligomeric tau is the most pathological configuration of the protein.
Purified full-length recombinant mouse TIA1 protein was generated from standard cloning methods followed by standard protocols for bacterial expression and purification. Recombinant TIA1 was incubated with commercially available human recombinant tau (ON4R isoform) obtained from R&D Systems at the indicated molar ratios/concentrations. After indicated incubation times, reactions were spotted onto nitrocellulose membrane followed by immunoblotting with primary antibodies that recognize oligomeric tau (oTau) or TIA1. Fluorescently labeled secondary antibody staining against indicated primary antibodies was followed by quantitative image analysis using a Li-COR Odyssey system. Experiment A evaluates the impact of TIA1:tau molar ratio on tau oligomerization and whether OTX0049 at a single test concentration interferes with TIA1-dependent tau oligomerization (FIG. 5, left panels). The experiment represented in the right panels measure the dose-response of OTX0049 and OTX1017 (Formula I in claims) inhibition of TIA1-dependent tau oligomerization at a fixed ratio of recombinant TIA1:tau (FIG. 5, right panels).

| SMILES | multimerization of TIA1 (FRET signal) [1] | oligomeric tau in the hippocampus [2] | GFAP staining in the cortex (neuroinflammation) [3] | thickness of the CA1 pyramidal layer neurons (NeuN staining) [3] | TIA1-dependent tau oligomerization, dose-response [4] |
| --- | --- | --- | --- | --- | --- |
| CCOC(=O)c1ccc(-n2sc3ccccc3c2=O)cc1 [Formula III] | demonstrate FRET signals indicative of TIA1 multimerization | – | – | – | – |
| Cc1ccc(C)c(-n2[se]c3cc(F)ccc3c2=O)c1 [OTX1017] | Induce Multimerization of Recombinant Mouse TIA1 | significantly reduces the presence of oligomeric tau in the hippocampus | ameliorated | ameliorated by drug treatment | drug-dependent reduction of TIA1-dependent tau oligomerization |
| Cc1ccc(C)c(-n2[se]c3cncnc3c2=O)c1 [OTX1018] | Induce Multimerization of Recombinant Mouse TIA1 | – | – | – | – |
